Measurements from paper PMC8790593, “Synthesis of broad-specificity activity-based probes for exo-β-mannosidases” (Organic & Biomolecular Chemistry, 2021).
Read-outs that look alike come from different tables or passages of the source.

Columns and labels:
Assay type in all cases: biochemical
Details in all cases: read-out: % inhibition at 1 mM
BsGH164 [1] = target: T1, BsGH164 (Bacteroides salyersiae, UniProt I9SUA3); test: residual activity with 4MU-beta-Man after preincubation; covalent crystal structure ([…] A) and intact MS
T1 construct: gene HMPREF1071_03408; recombinant pET28-His6-BsGH164, E. coli, His6 kept; GH164 exo-beta-mannosidase
T1 sequence (I9SUA3 20-673): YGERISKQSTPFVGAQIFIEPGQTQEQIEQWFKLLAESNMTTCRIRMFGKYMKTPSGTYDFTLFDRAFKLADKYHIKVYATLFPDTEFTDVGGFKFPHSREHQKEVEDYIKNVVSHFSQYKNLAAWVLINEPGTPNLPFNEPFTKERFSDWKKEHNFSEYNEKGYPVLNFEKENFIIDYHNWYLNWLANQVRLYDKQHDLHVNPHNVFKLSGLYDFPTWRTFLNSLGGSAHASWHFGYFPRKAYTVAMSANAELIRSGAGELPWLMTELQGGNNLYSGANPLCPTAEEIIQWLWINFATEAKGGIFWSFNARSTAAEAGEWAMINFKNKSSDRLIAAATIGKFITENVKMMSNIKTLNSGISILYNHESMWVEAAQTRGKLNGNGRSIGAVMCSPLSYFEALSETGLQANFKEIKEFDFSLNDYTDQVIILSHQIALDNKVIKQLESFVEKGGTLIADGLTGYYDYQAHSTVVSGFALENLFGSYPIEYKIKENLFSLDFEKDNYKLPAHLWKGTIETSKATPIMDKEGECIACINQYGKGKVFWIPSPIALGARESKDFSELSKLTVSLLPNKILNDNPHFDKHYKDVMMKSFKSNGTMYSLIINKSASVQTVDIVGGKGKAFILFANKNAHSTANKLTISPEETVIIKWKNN

CmMan5A [2] = target: T2, CmMan5A (Cellvibrio mixtus, UniProt Q6QT42); test: residual activity with 4MU-beta-Man after preincubation; intact MS
T2 construct: gene man5A; recombinant, codon-optimised gene in pET24a (NdeI/XhoI), C-terminal 6xHis, E. coli; matches previously crystallised form; GH5
T2 sequence (Q6QT42 26-456): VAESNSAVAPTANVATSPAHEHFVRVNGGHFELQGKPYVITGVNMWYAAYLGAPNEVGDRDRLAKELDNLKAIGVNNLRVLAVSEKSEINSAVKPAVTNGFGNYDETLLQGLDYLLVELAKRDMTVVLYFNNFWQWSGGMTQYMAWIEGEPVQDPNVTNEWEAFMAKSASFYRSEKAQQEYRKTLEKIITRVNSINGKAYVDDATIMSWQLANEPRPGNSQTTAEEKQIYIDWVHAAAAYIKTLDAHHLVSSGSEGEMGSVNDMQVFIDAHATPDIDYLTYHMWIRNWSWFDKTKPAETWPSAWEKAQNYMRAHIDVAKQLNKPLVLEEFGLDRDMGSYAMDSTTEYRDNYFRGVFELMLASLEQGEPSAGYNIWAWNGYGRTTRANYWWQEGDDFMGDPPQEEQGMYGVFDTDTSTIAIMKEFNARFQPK

BsGH164 [3] = target: T1, BsGH164; test: residual activity with 4MU-beta-Man after preincubation; covalent crystal structure ([…] A) and intact MS; remark: listed apart in the source
CmMan5A [4] = target: T2, CmMan5A; test: as above
BtMan2A = target: T3, BtMan2A (Bacteroides thetaiotaomicron, UniProt Q8AAK6); test: as above
T3 construct: gene BT_0458; recombinant pET28a-BtMan2A-His6, E. coli, His tag kept; GH2 exo-beta-mannosidase
T3 sequence (Q8AAK6 26-864): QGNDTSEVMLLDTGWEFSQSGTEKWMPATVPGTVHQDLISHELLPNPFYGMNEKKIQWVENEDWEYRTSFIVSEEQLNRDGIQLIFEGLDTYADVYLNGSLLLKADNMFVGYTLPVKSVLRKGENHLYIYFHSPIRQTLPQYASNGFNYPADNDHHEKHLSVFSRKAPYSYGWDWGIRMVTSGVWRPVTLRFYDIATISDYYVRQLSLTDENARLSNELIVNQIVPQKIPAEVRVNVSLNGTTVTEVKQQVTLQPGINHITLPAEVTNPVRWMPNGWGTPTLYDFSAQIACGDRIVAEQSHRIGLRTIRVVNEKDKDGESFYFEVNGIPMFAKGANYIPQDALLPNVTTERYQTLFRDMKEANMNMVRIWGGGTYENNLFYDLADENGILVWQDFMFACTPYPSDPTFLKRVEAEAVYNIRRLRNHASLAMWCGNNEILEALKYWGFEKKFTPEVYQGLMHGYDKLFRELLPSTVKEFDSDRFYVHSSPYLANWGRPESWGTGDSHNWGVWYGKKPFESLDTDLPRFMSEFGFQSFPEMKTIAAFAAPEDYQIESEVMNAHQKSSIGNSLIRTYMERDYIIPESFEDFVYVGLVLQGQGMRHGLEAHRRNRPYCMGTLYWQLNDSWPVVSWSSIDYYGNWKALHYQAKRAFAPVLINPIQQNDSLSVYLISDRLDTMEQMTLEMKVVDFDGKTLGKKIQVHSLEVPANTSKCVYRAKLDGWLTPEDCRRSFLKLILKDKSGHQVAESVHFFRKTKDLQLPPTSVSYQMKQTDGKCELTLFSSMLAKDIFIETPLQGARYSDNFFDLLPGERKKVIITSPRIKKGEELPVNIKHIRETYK

Row | inhibition at 1000 µM (BsGH164 [1]) | Structure (SMILES) | inhibition at 1000 µM (CmMan5A [2]) | inhibition at 1000 µM (BsGH164 [3]) | inhibition at 1000 µM (CmMan5A [4]) | inhibition at 1000 µM (BtMan2A)
1 | 76% | OC[C@@H]1[C@@H](O)[C@H](O)[C@H](O)[C@@H]2O[C@H]12 [compound 1, β-D-manno-cyclophellitol] | 20% | – | – | –
2 | – | OC[C@@H]1[C@@H](O)[C@H](O)[C@H](O)[C@@H]2N[C@H]12 [compound 2, β-D-manno-cyclophellitol aziridine] | 20% | 30% | – | –
3 | – | [N-]=[N+]=NCCCCCCCCN1[C@@H]2[C@H](CO)[C@@H](O)[C@H](O)[C@H](O)[C@@H]21 (stereo partly drawn) [compound 3, N-octylazido aziridine 3] | – | – | 85% | 85%
